# From patent US6737383B1, “Herbicidal oxadiazolidines” (priority 1999, dated 2004)
# Legend:
# smallflower flatsedge = assay: Test B flood test smallflower flatsedge; format: in vivo, Cyperus difformis
# Method in brief: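 Read-out is a visual response score from 0 (no effect) to 10 (complete control), assigned by comparison with untreated controls. Treatment was applied at the 2-leaf stage, and plants stayed in the greenhouse for twelve to sixteen days before scoring.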
# surinam grass = assay: Test B pre/postemergence surinam grass; format: in vivo, Brachiaria decumbens
# Method in brief: (§1)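 Herbicidal effect was estimated by eye on a ten-point control scale after plants spent twelve to sixteen days in a greenhouse following soil or foliar treatment. Foliar sprays targeted plants at one to four leaves; all doses were formulated in a non-phytotoxic solvent with surfactant.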
# blackgrass = assay: Test B pre/postemergence blackgrass; format: in vivo, Alopecurus myosuroides
# Method in brief: as §1
# bedstraw = assay: Test B pre/postemergence bedstraw; format: in vivo, Galium aparine
# Method in brief: as §1
# [1] = Postemergence, Rate 1000 g/ha, scale 0 to 10 (0 no effect, 10 complete control)
# [2] = Postemergence, Rate 250 g/ha, scale 0 to 10, 0 no effect, 10 complete control
# [3] = Preemergence, Rate 125 g/ha, scale 0 to 10 (0 no effect, 10 complete control)
# [4] = Preemergence, Rate 250 g/ha, scale of 0 to 10 where 0 is no effect and 10 is complete control
# [5] = Preemergence, Rate 500 g/ha, scale 0 (no effect) to 10 (complete control)
# [6] = Rate 125 g/ha, Postemergence, scale 0 to 10, 0 no effect, 10 complete control
# [7] = Rate 500 g/ha, Postemergence, 0 to 10 scale (0 no effect, 10 complete control)
# [8] = Rate 1000 g/ha, Preemergence, scale 0 to 10 (0 no effect, 10 complete control)
# [9] = Postemergence, Rate 125 g/ha, scale of 0 to 10 where 0 is no effect and 10 is complete control
# [10] = Preemergence, Rate 62 g/ha, scale 0 to 10 (0 no effect, 10 complete control)
# [11] = Preemergence, Rate 125 g/ha, 0 is no effect, 10 is complete control
# [12] = Preemergence, Rate 250 g/ha, scale 0 to 10, 0 is no effect, 10 is complete control
# [13] = Preemergence, Rate 500 g/ha, scale 0 to 10 (0 no effect, 10 complete control)
# [14] = Rate 62 g/ha, Postemergence, scale of 0 to 10 where 0 is no effect and 10 is complete control
# [15] = Rate 250 g/ha, Postemergence, scale 0 to 10, 0 is no effect, 10 is complete control
# [16] = Rate 500 g/ha, Postemergence, scale 0 to 10, 0 no effect, 10 complete control
# [17] = Preemergence, Rate 62 g/ha, scale of 0 to 10 where 0 is no effect and 10 is complete control
# [18] = Preemergence, Rate 500 g/ha, scale of 0 to 10 where 0 is no effect and 10 is complete control
# [19] = Rate 125 g/ha, Preemergence, scale of 0 to 10 where 0 is no effect and 10 is complete control
# [20] = Rate 125 g/ha, Postemergence, scale 0 to 10
structure (smiles),measurement,setting,value
CC(C)N(C(=O)n1oc(=O)n(-c2ccccc2Cl)c1=O)c1ccc(F)cc1 [Compound 8],S. Flatsedge plant response rating,smallflower flatsedge; [1],0
same,S. Flatsedge plant response rating,"smallflower flatsedge; Rate 125 g/ha, Postemergence section (flood test species), scale 0 to 10, 0 no effect, 10 complete control",0
same,S. Flatsedge plant response rating,"smallflower flatsedge; flood test, listed under Postemergence, Rate 250 g/ha, scale 0 to 10, 0 no effect, 10 complete control",0
same,B. signalgrass plant response rating,surinam grass; [2],0
same,B. signalgrass plant response rating,surinam grass; [1],3
same,"Plant response rating, B. signalgrass",surinam grass; [3],0
same,"Plant response rating, B. signalgrass",surinam grass; [4],4
same,B. signalgrass plant response rating,surinam grass; [5],5
same,B. signalgrass plant response rating,surinam grass; [6],0
same,B. signalgrass plant response rating,surinam grass; [7],0
same,"Plant response rating, B. signalgrass",surinam grass; [8],6
same,Blackgrass plant response rating,blackgrass; [2],2
same,Blackgrass plant response rating,blackgrass; [1],5
same,"Plant response rating, Blackgrass",blackgrass; [3],0
same,"Plant response rating, Blackgrass",blackgrass; [4],0
same,Blackgrass plant response rating,blackgrass; [5],0
same,Blackgrass plant response rating,blackgrass; [6],0
same,Blackgrass plant response rating,blackgrass; [7],2
same,"Plant response rating, Blackgrass",blackgrass; [8],4
same,Bedstraw plant response rating,bedstraw; [2],2
same,Bedstraw plant response rating,bedstraw; [1],3
same,"Plant response rating, Bedstraw",bedstraw; [3],0
same,"Plant response rating, Bedstraw",bedstraw; [4],0
same,Bedstraw plant response rating,bedstraw; [5],0
same,Bedstraw plant response rating,bedstraw; [6],2
same,Bedstraw plant response rating,bedstraw; [7],3
same,"Plant response rating, Bedstraw",bedstraw; [8],0
CCOC(=O)Cn1c(=O)on(C(=O)N(c2ccc(F)cc2)C(C)C)c1=O [Compound 128],S. Flatsedge plant response rating,"smallflower flatsedge; Postemergence (flood test species), Rate 125 g/ha, scale of 0 to 10 where 0 is no effect and 10 is complete control",0
same,"Plant response rating, S. Flatsedge","smallflower flatsedge; Rate 250 g/ha, Postemergence (flood test), scale 0 to 10, 0 is no effect, 10 is complete control",0
same,S. Flatsedge plant response rating,"smallflower flatsedge; Rate 500 g/ha, listed under Postemergence (flood test species), scale 0 to 10",0
same,B. signalgrass plant response rating,surinam grass; [9],0
same,B. signalgrass plant response rating,surinam grass; [10],0
same,B. signalgrass plant response rating (0 to 10 scale),surinam grass; [11],0
same,B. signalgrass plant response rating,surinam grass; [12],0
same,B. signalgrass plant response rating,surinam grass; [13],0
same,B. signalgrass plant response rating,surinam grass; [14],0
same,"Plant response rating, B. signalgrass",surinam grass; [15],0
same,B. signalgrass plant response rating,"surinam grass; Rate 500 g/ha, Postemergence, scale of 0 to 10 where 0 is no effect and 10 is complete control",0
same,Blackgrass plant response rating,blackgrass; [9],0
same,Blackgrass plant response rating,blackgrass; [10],0
same,Blackgrass plant response rating (0 to 10 scale),blackgrass; [11],0
same,Blackgrass plant response rating,blackgrass; [12],0
same,Blackgrass plant response rating,blackgrass; [13],2
same,Blackgrass plant response rating,blackgrass; [14],0
same,"Plant response rating, Blackgrass",blackgrass; [15],0
same,Blackgrass plant response rating,"blackgrass; Rate 500 g/ha, Postemergence, scale 0 to 10",0
same,Bedstraw plant response rating,bedstraw; [9],0
same,Bedstraw plant response rating,bedstraw; [10],0
same,Bedstraw plant response rating (0 to 10 scale),bedstraw; [11],0
same,Bedstraw plant response rating,bedstraw; [12],0
same,Bedstraw plant response rating,bedstraw; [13],0
same,Bedstraw plant response rating,bedstraw; [14],0
same,"Plant response rating, Bedstraw",bedstraw; [15],0
same,Bedstraw plant response rating,bedstraw; [16],0
COCCOCn1c(=O)on(C(=O)N(c2ccc(F)cc2)C(C)C)c1=O [Compound 220],S. Flatsedge plant response rating,"smallflower flatsedge; Rate 62 g/ha, headed Pre-emergence (flood test species), scale 0 to 10 (0 no effect, 10 complete control)",0
same,S. Flatsedge plant response rating,"smallflower flatsedge; Rate 125 g/ha, Pre-emergence, flood test species, scale 0 to 10 where 0 is no effect and 10 is complete control",0
same,S. Flatsedge plant response rating,"smallflower flatsedge; Rate 250 g/ha, Pre-emergence, flood-test species, scale 0 to 10, 0 is no effect, 10 is complete control",0
same,S. Flatsedge plant response rating,"smallflower flatsedge; Rate 500 g/ha, Pre-emergence, flood test species, scale 0 to 10 (0 no effect, 10 complete control)",0
same,B. signalgrass plant response rating,surinam grass; [17],7
same,B. signalgrass plant response rating,surinam grass; [12],8
same,"Plant response rating, B. signalgrass",surinam grass; [18],8
same,B. signalgrass plant response rating,surinam grass; [14],2
same,B. signalgrass plant response rating,"surinam grass; Rate 125 g/ha, Postemergence, scale 0 (no effect) to 10 (complete control)",7
same,B. signalgrass plant response rating,surinam grass; [19],7
same,"Plant response rating (0 to 10; 0 is no effect, 10 is complete control), B. signalgrass","surinam grass; Rate 250 g/ha, Postemergence",8
same,B. signalgrass plant response rating,surinam grass; [16],8
same,Blackgrass plant response rating,blackgrass; [17],8
same,Blackgrass plant response rating,blackgrass; [4],10
same,"Plant response rating, Blackgrass",blackgrass; [18],10
same,Blackgrass plant response rating,blackgrass; [14],5
same,Blackgrass plant response rating,blackgrass; [20],7
same,Blackgrass plant response rating,blackgrass; [19],9
same,"Plant response rating (0 to 10; 0 is no effect, 10 is complete control), Blackgrass","blackgrass; Rate 250 g/ha, Postemergence",8
same,Blackgrass plant response rating,blackgrass; [16],8
same,Bedstraw plant response rating,bedstraw; [17],0
same,Bedstraw plant response rating,bedstraw; [4],10
same,"Plant response rating, Bedstraw",bedstraw; [18],10
same,Bedstraw plant response rating,bedstraw; [14],6
same,Bedstraw plant response rating,bedstraw; [20],8
same,Bedstraw plant response rating,bedstraw; [19],4
same,"Plant response rating (0 to 10; 0 is no effect, 10 is complete control), Bedstraw","bedstraw; Rate 250 g/ha, Postemergence",8
same,Bedstraw plant response rating,bedstraw; [16],9
